These results are taken from ChEMBL document CHEMBL5154818, “Development of oxoisoaporphine derivatives with topoisomerase I inhibition and reversal of multidrug resistance in breast cancer MCF-7/ADR cells” (Eur J Med Chem, 2022).

Calls of active or inactive are those of the source. The calls are words filed in the database; no cut-off is given here.

Data set [1] concerns the target T1, ATP-dependent translocase ABCB1 (Homo sapiens, UniProt P08183). Kind of data set: Inhibition of P-gp-mediated multidrug resistance in human MCF7/ADR cells assessed as decrease in P-gp expression at 20 uM measured after 24 hrs by Western blot analysis. The note with it: NCI/ADR-RES. Format: cell-based. A general note: Immunoblotting shows a protein as a band on a membrane.

A short description of data set [2]: Toxicity in BALB/c nude mouse xenografted with human MCF7 cells assessed as increase in survival rate at 10 mg/kg, ip administered 3 times a week for 3 weeks. The note with it: in vivo, 504 h. The format is organism-based. A general note: In xenograft studies the graft and the host belong to different species.
For data set [3], the target named is T1, ATP-dependent translocase ABCB1. Kind of data set: Inhibition of P-gp-mediated multidrug resistance in human MCF7/ADR cells assessed as decrease in P-gp expression at 10 uM measured after 24 hrs by Western blot analysis. The format is cell-based. The note with it: NCI/ADR-RES.
For the next data set, the system named is HepG2. In words: Antiproliferative activity against human HepG2 cells after 48 hrs by MTT assay. The note with it: HepG2, 48 h. The format is functional, cell-based.
Data set [4] concerns MCF7. Kind of data set: Induction of cell cycle arrest in human MCF7 cells assessed accumulation of cells at S phase at 8 uM measured after 48 hrs by propidium iodide staining based flow cytometric analysis (reference value: 27.53%). Format: functional.
For data set [5], the system named is NCI/ADR-RES. Kind of data set: Antiproliferative activity against human MCF7/ADR cells after 48 hrs by MTT assay. Format: functional, cell-based. For orientation: Tetrazolium assays rely on reduction of a dye to a coloured formazan, in cell work by metabolically active cells.
The test system of data set [6] is NCI/ADR-RES. In words: Induction of apoptosis in human MCF7/ADR cells assessed as increase in Bad expression at 5 to 20 uM measured after 24 hrs by Western blotting analysis. Conditions: dose 5-20 µM. Format: functional, cell-based.
Data set [7] deals with MCF7. In words: Induction of cell cycle arrest in human MCF7 cells assessed accumulation of cells at G1 phase at 4 uM measured after 48 hrs by propidium iodide staining based flow cytometric analysis (reference value: 45.94%). Format: functional.
Another data set is filed under the species Danio rerio. In words: Induction of apoptosis in zebrafish embryo assessed as increase intracellular ROS level at 0.01 to 1 uM measured by DCFH-DA dye based flow cytometric analysis. Format: functional, organism-based. The note with it: dose 0.01-1 µM.
Data set [8] can be described thus: Toxicity in BALB/c nude mouse xenografted with human MCF7 cells assessed as heart tissue damage at 1 to 10 mg/kg, ip administered 3 times a week for 3 weeks. Format: organism-based. Conditions: in vivo, 504 h, dose 1-10 mg/kg.
Data set [9] addresses T1, ATP-dependent translocase ABCB1. Kind of data set: Inhibition of P-gp-mediated multidrug resistance in human MCF7/ADR cells at 10 to 20 uM assessed as adriamycin accumulation treated with adriamycin measured after 24 hrs by flow cytometry. Format: cell-based. The note with it: nci/adr-res, dose 10-20 µM.
Data set [10] in a line: Toxicity in BALB/c nude mouse xenografted with human MCF7 cells assessed as kidney tissue damage at 1 to 10 mg/kg, ip administered 3 times a week for 3 weeks. The note with it: in vivo, 504 h, dose 1-10 mg/kg. The format is organism-based.
Data set [11] can be described thus: Toxicity in BALB/c nude mouse xenografted with human MCF7 cells assessed as spleen tissue damage at 1 to 10 mg/kg, ip administered 3 times a week for 3 weeks. The note with it: in vivo, 504 h, dose 1-10 mg/kg. Format: organism-based.
Data set [12] can be described thus: Toxicity in BALB/c nude mouse xenografted with human MCF7 cells assessed as lung tissue damage at 1 to 10 mg/kg, ip administered 3 times a week for 3 weeks. The format is organism-based. Conditions: in vivo, 504 h, dose 1-10 mg/kg.

T1 sequence (P08183 whole entry): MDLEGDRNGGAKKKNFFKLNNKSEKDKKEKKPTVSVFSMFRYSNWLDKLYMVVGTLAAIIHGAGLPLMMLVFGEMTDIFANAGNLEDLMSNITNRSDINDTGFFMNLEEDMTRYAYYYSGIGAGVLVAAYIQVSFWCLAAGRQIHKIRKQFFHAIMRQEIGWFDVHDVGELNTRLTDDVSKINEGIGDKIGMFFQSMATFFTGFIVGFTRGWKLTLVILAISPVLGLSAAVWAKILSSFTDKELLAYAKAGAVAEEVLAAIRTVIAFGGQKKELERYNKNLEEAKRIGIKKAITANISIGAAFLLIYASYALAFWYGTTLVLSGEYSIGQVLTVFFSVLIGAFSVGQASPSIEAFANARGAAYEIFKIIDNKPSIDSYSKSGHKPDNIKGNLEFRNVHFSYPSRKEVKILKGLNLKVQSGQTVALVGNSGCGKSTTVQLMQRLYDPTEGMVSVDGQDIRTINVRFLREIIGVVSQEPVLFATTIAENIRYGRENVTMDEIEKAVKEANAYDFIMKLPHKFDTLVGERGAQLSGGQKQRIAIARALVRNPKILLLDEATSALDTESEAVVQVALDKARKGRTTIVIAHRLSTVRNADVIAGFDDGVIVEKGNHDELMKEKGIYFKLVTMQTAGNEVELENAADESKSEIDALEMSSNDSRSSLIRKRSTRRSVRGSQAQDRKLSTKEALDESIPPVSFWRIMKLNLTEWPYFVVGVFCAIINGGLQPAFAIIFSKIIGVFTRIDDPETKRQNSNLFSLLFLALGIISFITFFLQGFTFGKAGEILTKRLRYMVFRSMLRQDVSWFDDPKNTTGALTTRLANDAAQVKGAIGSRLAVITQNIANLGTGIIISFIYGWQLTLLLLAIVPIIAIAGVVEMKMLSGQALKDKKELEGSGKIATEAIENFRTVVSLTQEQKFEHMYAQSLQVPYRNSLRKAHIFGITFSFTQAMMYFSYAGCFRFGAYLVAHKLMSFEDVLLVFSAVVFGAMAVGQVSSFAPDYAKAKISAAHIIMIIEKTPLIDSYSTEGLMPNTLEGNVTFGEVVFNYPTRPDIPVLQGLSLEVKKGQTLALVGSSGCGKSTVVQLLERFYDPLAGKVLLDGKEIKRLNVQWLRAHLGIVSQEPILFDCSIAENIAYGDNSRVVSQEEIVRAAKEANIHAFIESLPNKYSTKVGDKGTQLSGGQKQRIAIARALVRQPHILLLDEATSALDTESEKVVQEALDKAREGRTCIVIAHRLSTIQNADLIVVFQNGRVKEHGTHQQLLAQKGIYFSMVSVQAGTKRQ

For the compound `CC1CCCCN1CCOc1ccc2c3c(nccc13)-c1ccccc1C2=O` (centres undefined), the inhibition – broadly, the change of the read-out against control, counted positive when it falls – at 20 µM in data set [1] was 18.1%. Besides, the Activity entry is reported as “Non-Toxic” in data set [2]; 24.3% in the data set with MCF7 [4]; 51.07% in the data set with MCF7 [7]; “Non-Toxic” in data set [8]; “Non-Toxic” in data set [10]; “Non-Toxic” in [11]. For the same compound, in data set [12], the Activity result is reported as “Non-Toxic”. In addition, in data set [3], the inhibition at 10 µM amounted to 14.9%. Also, the results for the IC50 in the data set on HepG2 and with NCI/ADR-RES [5] were 4.88 µM and 7.64 µM, respectively. The result in the data set with NCI/ADR-RES [6] and in the data set filed under Danio rerio was Active. For the same compound, the “inhibition (INH)” value in [9] is on record as “Active”.
